system: wild type NL-4.3; experiment: multi-cycle infection assay in MT-4 cells (MTT cytoprotection); assay type: cell-based, HIV-1; details: Human immunodeficiency virus 1, MT4, 144 h; MT-4 cells, wild type NL-4.3, 6 days, MTT; read-out: EC50 (nM) multi-cycle
Method: The antiviral efficacies of the integrase inhibitor compounds of the invention were evaluated based on EC50 measures obtained from two different in vitro HIV infection assay using cultured MT-4 cells: (1) a multi-cycle infection where cells were infected with wild type NL-4.3) and (2) a single-cycle infection where the cells were infected with a luciferase-bearing, envelope defective (env-) NL-4.3 virus pseudotyped with HIV-1 env (HXBc2.
The incubation period for the multi-cycle infection assay was 6 days. Cell viability (cytoprotection) and EC50 were determined using the colorimetric MTT assay (A. J. Japour et al, Antimicrobial Agents and Chemotherapy, 37, 1095-1101, 1993 and R. Pauwels et al. Journal of Virological Methods, 20, 309-321, 1988).

Row | SMILES | EC50 [nM]
1 | Cc1c(C(=O)NCc2ccc(F)c(Cl)c2)cnc(C(=O)NO)c1O [Example 74, 3-Hydroxy-4-methyl-pyridine-2,5-dicarboxylic Acid 5-(3-chloro-4-fluoro-benzylamide)2-hydroxyamide] | 267
2 | O=C(NCc1cc(F)cc(F)c1)c1cnc(C(=O)NO)c(O)c1CO [Example 8, N^5-(3,5-difluorobenzyl)-N^2,3-dihydroxy-4-(hydroxymethyl)pyridine-2,5-dicarboxamide] | > 10000
3 | O=C(Nc1ccc(F)cc1)Nc1cnc(C(=O)NO)c(O)c1CO [Example 27, 5-[3-(4-Fluoro-phenyl)-ureido]-3-hydroxy-4-hydroxymethyl-pyridine-2-carboxylic Acid Hydroxyamide] | 1100
4 | O=C(NO)c1ncc(CNCc2ccc(F)cc2)c(CO)c1O [Example 9] | 1000
5 | O=C(NCc1ccc(Cl)c(Cl)c1)c1cnc(C(=O)NOCc2ccccc2)c(OCc2ccccc2)c1CO [Example 15, N^2,3-bis(benzyloxy)-N^5-(3,4-dichlorobenzyl)-4-(hydroxymethyl)pyridine-2,5-dicarboxamide] | > 10000
6 | O=C(NO)c1ncc(CNc2ccc(F)cc2)c(CO)c1O [Example 21, 5-[(4-Fluoro-phenylamino)-methyl]-3-hydroxy-4-hydroxymethyl-pyridine-2-carboxylic Acid Hydroxyamide] | 4.3
7 | COc1ccc(CNC(=O)c2cnc(C(=O)NOCc3ccccc3)c(OCc3ccccc3)c2CO)cc1 [Example 5, N^2,3-bis(benzyloxy)-4-(hydroxymethyl)-N^5-(4-methoxybenzyl)pyridine-2,5-dicarboxamide] | 900
8 | O=C(NO)c1ncc(CCc2ccc(F)cc2)c(CO)c1O [Example 67, 5-[2-(4-Fluoro-phenyl)-ethyl]-3-hydroxy-4-hydroxymethyl-pyridine-2-carboxylic Acid Hydroxyamide] | 235
9 | O=C(NCc1cc(F)cc(F)c1)c1cnc(C(=O)NOCc2ccccc2)c(OCc2ccccc2)c1CO [Example 7, N^2,3-bis(benzyloxy)-N^5-(3,5-difluorobenzyl)-4-(hydroxymethyl)pyridine-2,5-dicarboxamide] | 1500
10 | O=C(NO)c1ncc(CNCc2cc(F)cc(F)c2)c(CO)c1O [Example 10, 5-((3,5-difluorobenzylamino)methyl)-N,3-dihydroxy-4-(hydroxymethyl)picolinamide] | > 10000
11 | O=C(Nc1cnc(C(=O)NO)c(O)c1CO)c1ccc(F)cc1 [Example 23, 5-(4-Fluoro-benzoylamino)-3-hydroxy-4-hydroxymethyl-pyridine-2-carboxylic Acid Hydroxyamide] | 6300
12 | COCc1c(C(=O)N(C)Cc2ccc(F)cc2)cnc(C(=O)NO)c1O [Example 12, N^5-(4-fluorobenzyl)-N2,3-dihydroxy-4-(methoxymethyl)-N^5-methylpyridine-2,5-dicarboxamide] | 14000
13 | O=C(NCc1ccc2c(c1)OCO2)c1cnc(C(=O)NO)c(O)c1CO [Example 4, N^5-(benzo[d][1,3]dioxol-5-ylmethyl)-N2,3-dihydroxy-4-(hydroxymethyl)pyridine-2,5-dicarboxamide] | > 10000
14 | O=C(NCc1ccc(Cl)c(Cl)c1)c1cnc(C(=O)NO)c(O)c1CO [Example 16, N^5-(3,4-dichlorobenzyl)-N^2,3-dihydroxy-4-(hydroxymethyl)pyridine-2,5-dicarboxamide] | 700
15 | O=C(NO)c1ncc(CNCc2ccc3c(c2)OCO3)c(CO)c1O [Example 11, 5-((benzo[d][1,3]dioxol-5-ylmethylamino)methyl)-N,3-dihydroxy-4-(hydroxymethyl)picolinamide] | 300
16 | O=C(NCc1ccc(F)c(F)c1)c1cnc(C(=O)NO)c(O)c1CO [Example 20, N^5-(3,4-difluorobenzyl)-N^2,3-dihydroxy-4-(hydroxymethyl)pyridine-2,5-dicarboxamide] | 30
17 | COc1ccc(COCc2cnc(C(=O)NO)c(O)c2CO)cc1 [Example 17, N,3-Dihydroxy-4-(hydroxymethyl)-5-((4-methoxybenzyloxy)methyl)-picolinamide] | 2000
18 | O=C(NCc1ccc(F)c(Cl)c1)c1cnc(C(=O)NOCc2ccccc2)c(OCc2ccccc2)c1CO [Example 13, N^2,3-bis(benzyloxy)-N^5-(3-chloro-4-fluorobenzyl)-4-(hydroxymethyl)pyridine-2,5-dicarboxamide] | > 10000
19 | COC(=O)N(Cc1ccc(F)cc1)Cc1cnc(C(=O)NO)c(O)c1CO [Example 65, (4-Fluoro-benzyl)-(5-hydroxy-6-hydroxycarbamoyl-4-hydroxymethyl-pyridin-3-ylmethyl)-carbamic Acid Methyl Ester] | > 10000
20 | O=C(NO)c1ncc(COc2ccc(F)cc2)c(CO)c1O [Example 28, 5-(4-Fluoro-phenoxymethyl)-3-hydroxy-4-hydroxymethyl-pyridine-2-carboxylic Acid Hydroxyamide] | 186
21 | O=C(NO)c1ncc(CS(=O)(=O)Cc2ccc(F)cc2)c(CO)c1O [Example 71, 5-(4-Fluoro-phenylmethanesulfonylmethyl)-3-hydroxy-4-hydroxymethyl-pyridine-2-carboxylic Acid Hydroxyamide] | 4.3
22 | COc1ccc(CNC(=O)c2cnc(C(=O)NO)c(O)c2CO)cc1 [Example 6, N^2,3-dihydroxy-4-(hydroxymethyl)-N^5-(4-methoxybenzyl)pyridine-2,5-dicarboxamide] | 1000
23 | O=C(NO)c1ncc(CN(Cc2ccccc2)c2ccc(F)cc2)c(CO)c1O [Example 25, 5-{[Benzyl-(4-fluoro-phenyl)-amino]-methyl}-3-hydroxy-4-hydroxymethyl-pyridine-2-carboxylic Acid Hydroxyamide] | 175
24 | COc1ccc(COCc2cnc(C(=O)NO)c3c2COC(C)(C)O3)cc1 [Example 19, N-hydroxy-5-((4-methoxybenzyloxy)methyl)-2,2-dimethyl-4H-[1,3]dioxino[4,5-c]pyridine-8-carboxamide] | 5060

— patent US8742123B2, “HIV integrase inhibitors from pyridoxine” (TaiMed Biologics, Inc., priority 2008, dated 2014)
